From article PMC8955854, “The Peptide Hormone CNMa Influences Egg Production in the Mosquito Aedes aegypti” (Insects, 2022)
“Also recorded” adds a separate entry of the source. Positions of bridges follow the written chain, without caps; N, C: chain ends. Residues, ends and D or L forms follow the SMILES beside them.

How the values were obtained:
AeCNMaR-1b (AAEL018316) = AeCNMaR-1b (AAEL018316) (Aedes aegypti, UniProt A0A1S4G7J8); test: Receptor activation, aequorin luminescence in CHO-K1 aeq cells expressing AeCNMaR-1b; format: cell-based
AeCNMaR-1b (AAEL018316), sequence (A0A1S4G7J8 entry or part of it): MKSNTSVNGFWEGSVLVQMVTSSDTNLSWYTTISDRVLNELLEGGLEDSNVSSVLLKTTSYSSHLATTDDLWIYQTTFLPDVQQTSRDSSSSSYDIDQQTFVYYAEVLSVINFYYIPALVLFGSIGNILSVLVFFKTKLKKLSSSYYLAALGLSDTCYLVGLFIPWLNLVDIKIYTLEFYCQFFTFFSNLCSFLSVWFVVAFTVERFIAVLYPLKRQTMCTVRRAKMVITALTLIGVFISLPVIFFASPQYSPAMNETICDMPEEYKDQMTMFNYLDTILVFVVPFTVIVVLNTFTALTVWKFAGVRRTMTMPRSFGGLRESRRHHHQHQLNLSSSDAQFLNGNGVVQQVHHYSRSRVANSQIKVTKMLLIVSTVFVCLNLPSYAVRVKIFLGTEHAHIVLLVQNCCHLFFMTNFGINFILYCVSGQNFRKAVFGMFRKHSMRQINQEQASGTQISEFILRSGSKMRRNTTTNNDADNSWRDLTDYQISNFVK
Text: The CNMa peptide was synthesized and HPLC purified (>90% purity) by Royobiotechs (Shanghai, China) based on the published sequence of the AeCNMa peptide sequence. Both the amidated (YMSLCHFKLCNMa) and the non-amidated (YMSLCHFKLCNM) were produced with a disulfide bridge between cysteines 5 and 10. The complete coding sequence of the two putative Ae. aegypti CNMa receptors (VectorBase genes AAEL024199 and AAEL018316, which we henceforth refer to as AeCNMaR-1a and AeCNMaR-1b, respectively) were commercially synthesized (Integrated DNA Technologies) and subsequently subcloned into a pcDNA3.1+ mammalian expression vector [24]. A Chinese hamster ovary cell line stably expressing the calcium-dependent bioluminescent protein aequorin (CHO-K1 aeq) was grown in Dulbecco’s modified eagles medium: nutrient F12 (DMEM:F12) media containing 10% heat-inactivated fetal bovine serum (FBS; Wisent, St. Bruno, QC, Canada), 200 μg/mL geneticin, and an antimycotic-antibiotic mixture as described previously. […]
Other Ae. aegypti peptides used in this study included “capability” (CAPA)-1 (GPTVGLFAFPRV-NH2), CAPA-2 (pQGLVPFPRV-NH2), AedaeCAPA-pyrokinin (PK) 1 (AGNSGANSGMWFGPRL-NH2), adipokinetic/corazonin-like peptide (ACP; pQVTFSRDWNA-NH2), adipokinetic hormone (AKH) (pQLTFTPSW-NH2), and corazonin (CRZ; pQTFQYSRGWTN-NH2). […] Single concentrations of the various peptides were loaded into individual wells of white 96-well luminescence plates (Greiner Bio-One, Frickenhausen, Germany) with each peptide concentration tested in quadruplicate. CHO-K1 aeq cells expressing either of the two AeCNMa receptors or mCherry were prepared for the functional assay, as described above, and injected into each well of the 96-well luminescence plates by an automated injector unit integrated with the Synergy 2 Multi-Mode Microplate Reader (BioTek, Winooski, VT, USA). The kinetic luminescent response was measured for 10 s immediately following the application of the cells into the wells containing the different peptide treatments or the negative (i.e., BSA media alone) or positive (i.e., 50 μM ATP) controls as described previously. Data was assembled in Microsoft Excel and then analyzed in GraphPad Prism 7.02 (GraphPad Software, San Diego, CA, USA) where the dose–response curves from multiple biological replicates were used to determine the half maximal effective concentrations (EC50).

AeCNMaR-1a (AAEL024199) = AeCNMaR-1a (AAEL024199) (Aedes aegypti, UniProt A0A6I8U3V2); test: Receptor activation, aequorin luminescence in CHO-K1 aeq cells expressing AeCNMaR-1a; format: cell-based
AeCNMaR-1a (AAEL024199), sequence (A0A6I8U3V2 entry or part of it): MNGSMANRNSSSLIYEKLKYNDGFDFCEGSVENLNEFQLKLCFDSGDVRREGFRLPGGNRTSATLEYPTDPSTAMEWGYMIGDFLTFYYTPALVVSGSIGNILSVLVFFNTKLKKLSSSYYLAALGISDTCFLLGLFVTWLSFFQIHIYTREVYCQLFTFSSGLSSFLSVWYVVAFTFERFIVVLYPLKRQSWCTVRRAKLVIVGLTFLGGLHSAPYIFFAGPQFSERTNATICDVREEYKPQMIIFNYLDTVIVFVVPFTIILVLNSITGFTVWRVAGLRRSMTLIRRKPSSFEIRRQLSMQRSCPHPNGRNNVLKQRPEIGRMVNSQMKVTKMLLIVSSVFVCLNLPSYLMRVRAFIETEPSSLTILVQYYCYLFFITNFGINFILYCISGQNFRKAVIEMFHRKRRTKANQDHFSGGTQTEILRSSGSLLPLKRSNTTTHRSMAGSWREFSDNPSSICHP
Text: The CNMa peptide was synthesized and HPLC purified (>90% purity) by Royobiotechs (Shanghai, China) based on the published sequence of the AeCNMa peptide sequence. Both the amidated (YMSLCHFKLCNMa) and the non-amidated (YMSLCHFKLCNM) were produced with a disulfide bridge between cysteines 5 and 10. The complete coding sequence of the two putative Ae. aegypti CNMa receptors (VectorBase genes AAEL024199 and AAEL018316, which we henceforth refer to as AeCNMaR-1a and AeCNMaR-1b, respectively) were commercially synthesized (Integrated DNA Technologies) and subsequently subcloned into a pcDNA3.1+ mammalian expression vector [24]. A Chinese hamster ovary cell line stably expressing the calcium-dependent bioluminescent protein aequorin (CHO-K1 aeq) was grown in Dulbecco’s modified eagles medium: nutrient F12 (DMEM:F12) media containing 10% heat-inactivated fetal bovine serum (FBS; Wisent, St. Bruno, QC, Canada), 200 μg/mL geneticin, and an antimycotic-antibiotic mixture as described previously. When cells reached 80–90% confluency, they were transfected using Lipofectamine 3000 transfection reagent following manufacturer recommendations (Life Technologies, Burlington, ON, Canada) to transiently express a mammalian construct in pcDNA3.1+ containing either of the two candidate CNMa receptors or mCherry (pcDNA3.1+ mCherry was a gift from Scott Gradia, Addgene plasmid #30125), the latter of which served as a negative control for the receptor functional assay. After 48 h following transfection, CHO-K1 aeq cells were harvested by dislodging from culture flasks using Dulbecco’s PBS containing EDTA and subsequently resuspended in receptor assay media.
Other Ae. aegypti peptides used in this study included “capability” (CAPA)-1 (GPTVGLFAFPRV-NH2), CAPA-2 (pQGLVPFPRV-NH2), AedaeCAPA-pyrokinin (PK) 1 (AGNSGANSGMWFGPRL-NH2), adipokinetic/corazonin-like peptide (ACP; pQVTFSRDWNA-NH2), adipokinetic hormone (AKH) (pQLTFTPSW-NH2), and corazonin (CRZ; pQTFQYSRGWTN-NH2). Serial dilutions of the peptide stocks were prepared in bovine serum albumin (BSA) assay media (DMEM:F12 media + 0.1% BSA + 1× antibiotic-antimycotic) to test concentrations ranging from 10 pM to 50 μM. Single concentrations of the various peptides were loaded into individual wells of white 96-well luminescence plates (Greiner Bio-One, Frickenhausen, Germany) with each peptide concentration tested in quadruplicate. CHO-K1 aeq cells expressing either of the two AeCNMa receptors or mCherry were prepared for the functional assay, as described above, and injected into each well of the 96-well luminescence plates by an automated injector unit integrated with the Synergy 2 Multi-Mode Microplate Reader (BioTek, Winooski, VT, USA). The kinetic luminescent response was measured for 10 s immediately following the application of the cells into the wells containing the different peptide treatments or the negative (i.e., BSA media alone) or positive (i.e., 50 μM ATP) controls as described previously. Data was assembled in Microsoft Excel and then analyzed in GraphPad Prism 7.02 (GraphPad Software, San Diego, CA, USA) where the dose–response curves from multiple biological replicates were used to determine the half maximal effective concentrations (EC50).

[1] = system: CHO K1 aeq mCherry-expressing cells; test: Negative control: luminescence in CHO-K1 aeq cells expressing mCherry; format: cell-based, Chinese hamster; settings: 1 µM peptide; CHO K1 aeq cells transfected with pcDNA3.1+ mCherry
Text: The CNMa peptide was synthesized and HPLC purified (>90% purity) by Royobiotechs (Shanghai, China) based on the published sequence of the AeCNMa peptide sequence. Both the amidated (YMSLCHFKLCNMa) and the non-amidated (YMSLCHFKLCNM) were produced with a disulfide bridge between cysteines 5 and 10. The complete coding sequence of the two putative Ae. aegypti CNMa receptors (VectorBase genes AAEL024199 and AAEL018316, which we henceforth refer to as AeCNMaR-1a and AeCNMaR-1b, respectively) were commercially synthesized (Integrated DNA Technologies) and subsequently subcloned into a pcDNA3.1+ mammalian expression vector [24]. […]
Other Ae. aegypti peptides used in this study included “capability” (CAPA)-1 (GPTVGLFAFPRV-NH2), CAPA-2 (pQGLVPFPRV-NH2), AedaeCAPA-pyrokinin (PK) 1 (AGNSGANSGMWFGPRL-NH2), adipokinetic/corazonin-like peptide (ACP; pQVTFSRDWNA-NH2), adipokinetic hormone (AKH) (pQLTFTPSW-NH2), and corazonin (CRZ; pQTFQYSRGWTN-NH2). […] Single concentrations of the various peptides were loaded into individual wells of white 96-well luminescence plates (Greiner Bio-One, Frickenhausen, Germany) with each peptide concentration tested in quadruplicate. […]

Ae. aegypti females = test: Egg laying after injection into mated, blood-fed females; format: in vivo, Aedes aegypti
Description: (§1) Three- to five-day-old mated females were blood-fed as detailed above, and groups were injected with a range of CNMa in 0.5 μL of saline or saline alone (AS) for a control. Females were allowed to recover and then housed individually in mesh cages. At 3 d PBM, a wet paper towel was provided to the females to facilitate egg laying for up to 48 h and then the number of eggs was counted. To assess possible interactions of CNMa with OEH and ILP3, mated females were blood-fed then decapitated and injected at 1 h PBM with 150 pmol of CNMa, OEH, or ILP3, or combinations of each hormone. Ovaries were dissected at 24 h PBM and yolk deposition was measured along the anterior–posterior axis for five oocytes from each individual, using an ocular micrometer fitted to a dissecting microscope. For CNMa and JH experiments, pupae were isolated in eclosion chambers for 6 h and females were collected. Females were divided into two groups, one which was immediately injected with 150 pmol of CNMa or saline. The other half of the cohort was held for an additional 8 h then injected with the same solutions. At 3 d post-eclosion, females were blood-fed and oviposition was measured for all treatment groups.
Figure 5 AeCNMa reduces egg clutch size in mated Ae. aegypti females. […] After three days females were allowed to oviposit and eggs were counted 48 h later. […]

[2] = system: ecdysteroid-responsive gene e74; test: e74 transcript abundance (qPCR) after injection into females; format: in vivo, Aedes aegypti; settings: CNMa or saline injected females, qPCR relative to AS-treated, MANOVA e74: F3,19 = 0.8192, p = 0.50
Description: (§2) Cohorts of female Ae. aegypti were sampled 8 to 10 days post-eclosion, pre-blood meal (NBF), then at 2, 4, 6, 8, 12, 24, 48, and 72 h PBM. Four or more females from each timepoint were dissected in cold, RNase-free PBS into head, midgut, ovaries, and abdominal body wall and fat body (“pelt”). Tissue samples were immediately frozen and stored at −80 °C. Tissues were thawed on ice, homogenized with a rotor type pestle, and then total RNA was extracted using the RNeasy Mini kit (Qiagen, Venlo, The Netherlands) according to the manufacturer’s instructions. RNA was treated with DNase using the Turbo DNA-free kit (Ambion, Austin, TX, USA). cDNA was synthesized from 100 ng of RNA with the iScript cDNA synthesis kit (BioRad, Hercules, CA, USA) and used as template in qPCR using the Quantifast SYBR Green PCR kit (Qiagen). The primers for each product are listed in Table S1. qPCR was performed on the Qiagen Rotorgene as described in [28]. Absolute standard curves were produced by cloning each qPCR product into the pSCA vector using the Strataclone PCR cloning kit (Agilent, Santa Clara, CA, USA) and preparing plasmid standards of a known copy number. For comparisons between mating status, the copy number of each target was normalized to the copy number of ribosomal protein S7.
(§3) For e74, expression is relative to e74 expression in AS-treated insects.

[3] = system: JH-responsive gene kruppel-homolog 1 (kh-1); test: kh-1 transcript abundance (qPCR) after injection into females; format: in vivo, Aedes aegypti; settings: CNMa or saline injected females
Description: as §2, §3

[4] = system: Ae. aegypti females (decapitated); test: Yolk deposition in blood-fed decapitated females; format: in vivo, Aedes aegypti
Description: as §1
Average amount of yolk per oocyte in mated, blood fed, decapitated females injected with combinations of CNMa (150 pmol), ILP3 (20 pmol), and OEH (20 pmol), Aedes saline (AS), or not injected (intact or decapitation only) at one-hour post blood meal. Error bars show one standard error above and below the mean.

Compound	EC50 (AeCNMaR-1b (AAEL018316))	EC50 (AeCNMaR-1a (AAEL024199))	luminescence in mCherry-expressing control cells [1]	greater sensitivity for the amidated peptide (AeCNMaR-1b (AAEL018316); AeCNMaR-1b, amidated AeCNMa vs non-amidated AeCNM)	luminescent response vs BSA media background (AeCNMaR-1b (AAEL018316); AeCNMaR-1b, peptides tested at 1 µM, raw luminescence, one-way ANOVA and Dunnett's test)	number of eggs laid vs controls (Ae. aegypti females; 150 pmol injected immediately post blood meal, mated, eggs counted after 3 d + 48 h oviposition, control Aedes saline (AS))	optimal dose (dose-response assay) (Ae. aegypti females; injection into mated)	lower concentration activating AeCNMaR-1a than AeCNMaR-1b (AeCNMaR-1a (AAEL024199); AeCNMaR-1a vs AeCNMaR-1b)	increase in sensitivity for the amidated peptide (AeCNMaR-1a (AAEL024199); AeCNMaR-1a, amidated AeCNMa vs non-amidated AeCNM)	luminescent response vs BSA media background (AeCNMaR-1a (AAEL024199); AeCNMaR-1a, peptides tested at 1 µM, raw luminescence, one-way ANOVA and Dunnett's test)	e74 expression vs saline [2]	e74 expression vs saline ([2]; listed as CNMa)	kh-1 expression vs saline ([3]; MANOVA kh-1: F1,20 = 0.5141, p = 0.68)	kh-1 expression vs saline ([3]; MANOVA kh-1: F1,20 = 0.5141, p = 0.68, listed as CNMa)	yolk uptake, CNMa only ([4]; CNMa 150 pmol at 1 h post blood meal, decapitated females, vs decapitated only and AS control, Tukey's HSD)	yolk uptake, CNMa and ILP3 ([4]; CNMa 150 pmol, ILP3 20 pmol at 1 h post blood meal, vs ILP3 only and ILP3 and OEH, Tukey's HSD)	yolk uptake, CNMa + OEH + ILP3 ([4]; CNMa 150 pmol, ILP3 20 pmol, OEH 20 pmol at 1 h post blood meal, vs ILP3 + OEH injected females, Tukey's HSD)	yolk uptake, OEH + CNMa ([4]; CNMa 150 pmol, OEH 20 pmol at 1 h post blood meal, vs OEH only or OEH + ILP3, Tukey's HSD)	effect on yolk deposition elicited by OEH, ILP3, or both peptides together ([4]; decapitated blood-fed females, co-injection)
CSCC[C@H](NC(=O)[C@H](CC(N)=O)NC(=O)[C@@H]1CSSC[C@H](NC(=O)[C@H](CC(C)C)NC(=O)[C@H](CO)NC(=O)[C@H](CCSC)NC(=O)[C@@H](N)Cc2ccc(O)cc2)C(=O)N[C@@H](Cc2c[nH]cn2)C(=O)N[C@@H](Cc2ccccc2)C(=O)N[C@@H](CCCCN)C(=O)N[C@@H](CC(C)C)C(=O)N1)C(=O)O [AeCNM, YMSLCHFKLCNM] (H-YMSLCHFKLCNM-OH; disulfide 5-10)	125 nM	46.3 nM	–	–	–	–	–	–	–	–	–	–	–	–	–	–	–	–	–
YMSLCHFKLCNMa (disulfide) [AeCNMa, Ae. aegypti CNMa peptide, amidated, HPLC purified (>90% purity)]	–	–	No luminescence was detected	2.4 fold	significant response several orders of magnitude over the BSA media background luminescent response	laid significantly fewer eggs than controls; also recorded: produced significantly fewer eggs than controls (p = 0.0087, Wilcoxon rank-sum test)	150 pmol	~ 10 fold	9 fold	significant response several orders of magnitude over the BSA media background luminescent response	no significant difference in their expression	did not significantly impact expression	no significant difference in their expression	did not significantly impact expression	not significantly different from decapitated only and AS control treatments	no significant difference in yolk uptake	no significant difference in yolk uptake	no significant difference in yolk uptake relative to OEH only or OEH + ILP3 treatments	did not affect yolk deposition elicited by OEH, ILP3, or both peptides together
